Results from patent US11202850B2, “Compositions and methods for inhibiting inflammation” (THE UNIVERSITY OF MEMPHIS RESEARCH FOUNDATION, priority 2018, dated 2021).

Key:
[1] = tested on: fresh human peripheral blood neutrophils; assay: NETosis on Cl-amidine eluting templates in vitro (DAPI/SYTOX Green BG ratio); assay type: cell-based
Description: 10 mm diameter punches of the templates (n=4) were placed in a 48-well culture plate and disinfected by UV irradiation. Isolated peripheral neutrophils from whole blood were suspended in sterile HBSS and used to seed templates with 600,000 cells in 250 μL of HBSS and cultured for 3 and 6 hours under standard conditions. Cellularized templates were then fixed in 10% buffered formalin and fluorescence quantification of NETs was carried out. Templates with 100 nM SYTOX Green for extracellular DNA followed by DAPI fixed cell nuclei stain at stock concentration (FIGS. 9A, 9B, 10A, 10B, and 11A). The ratio of DAPI (blue) to SYTOX green (BG ratio) pixels per image using MATLAB 2012a was quantified to determine degree of NETosis (FIGS. 12A and 12B).
Infrared scanning and quantification of citrullinated histone H3 (CitH3) was carried out as follows. Templates were incubated with rabbit anti-human histone H3 (citrulline R2+R8+R17) antibody (ABCAM) followed by IRDye 800CW donkey anti-rabbit secondary antibody. The templates were scanned on the 800-nm channel of the Odyssey CLx Infrared Imaging System (LICOR) to generate full-thickness template fluorescence. Template-bound CitH3 was quantified with standard curve of CitH3 vacuum blotted onto a PVDF membrane. Statistical analysis was carried out as follows. […] Then the plot of relative fluorescence against mass of CitH3 was fit with a linear regression. […]

PAD4 = molecular target: T1, PAD4 (Homo sapiens, UniProt Q9UM07); assay: PAD4 Inhibitor Screening Assay: Cl-amidine activity after exposure to electrospinning solvent HFP; assay type: biochemical
T1 construct: purchased
T1 sequence (Q9UM07 whole entry, species assumed): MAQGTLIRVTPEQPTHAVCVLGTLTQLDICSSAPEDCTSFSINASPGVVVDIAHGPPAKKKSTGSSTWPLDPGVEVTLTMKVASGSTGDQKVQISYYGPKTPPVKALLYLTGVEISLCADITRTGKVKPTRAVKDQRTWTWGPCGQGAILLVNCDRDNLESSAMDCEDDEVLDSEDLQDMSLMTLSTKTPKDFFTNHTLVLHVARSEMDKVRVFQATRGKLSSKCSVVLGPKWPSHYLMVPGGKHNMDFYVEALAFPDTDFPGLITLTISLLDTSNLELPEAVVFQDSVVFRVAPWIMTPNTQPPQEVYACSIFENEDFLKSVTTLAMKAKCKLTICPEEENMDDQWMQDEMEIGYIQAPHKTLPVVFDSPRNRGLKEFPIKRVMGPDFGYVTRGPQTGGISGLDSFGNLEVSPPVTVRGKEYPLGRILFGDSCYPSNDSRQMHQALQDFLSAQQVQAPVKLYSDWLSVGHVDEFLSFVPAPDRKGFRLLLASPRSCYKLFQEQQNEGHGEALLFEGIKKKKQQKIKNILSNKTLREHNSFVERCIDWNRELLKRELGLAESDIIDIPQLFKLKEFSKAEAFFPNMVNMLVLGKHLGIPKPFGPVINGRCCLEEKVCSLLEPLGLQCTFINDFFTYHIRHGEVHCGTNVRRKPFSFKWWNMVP
Text: The log transform of molarity against average fluorescent intensity was plotted for each concentration (FIG. 6).
As the concentration of drug increases, the relative fluorescence decreases, signifying an increase in the inhibition of PAD4. […] However, the drug was still active producing a sigmoidal curve similar to that of the HBSS samples.
In addition to determining the activity of Cl—Am, the samples exposed to HFP were used to create a standard curve for quantifying unknown Cl—Am concentrations. The four-parameter logistic regression of the HFP exposed samples (Equation 1, x=logarithmic transform of Cl—Am concentration and y=relative fluorescence) has an R2-value of 0.996, and there is no evidence of an inadequate model from the lack of fit test (p=0.28).
Lower fluorescence indicated greater inhibition of PAD4. No evidence of lack of fit (p=0.28) was found for the four-parameter regression of HFP exposed samples. […] This provided a standard curve for quantifying unknown Cl-amidine from elution studies.

N=C(CCl)NCCCC(NC(=O)c1ccccc1)C(N)=O [Cl-amidine, N-α-benzoyl-N5-(2-chloro-1-iminoethyl)-L-ornithine amide]
effect of eluted Cl-amidine on NETosis ([1]; on large diameter templates, 3 hours): opposite trend
effect of eluted Cl-amidine on NETosis ([1]; on small diameter templates, 3 hours (p<0.05)): significantly attenuated NETosis
lowest concentration inhibiting PAD4 activity (PAD4; after exposure to HFP): 1.2 µM
activity against PAD4 after exposure to HFP versus HBSS samples (PAD4; at two concentrations, 5.9 and 29.5 μM (p<0.0001)): significantly reduced its activity against PAD4
efficacy after exposure to solvent HFP (PAD4; sigmoidal curve similar to HBSS samples): retained efficacy after exposure to HFP
